Experimental data from US20250213587A1, “ITK INHIBITORS FOR INCREASING TH1 CELL ACTIVITY” (Corvus Pharmaceuticals, Inc., priority 2022, published 2025).
“Also recorded” adds a separate entry of the source.

Key:
[1] = target: T1, ITK (Homo sapiens, UniProt Q08881); experiment: Jump dilution assay; assay type: binding; parameters: purchased Invitrogen
T1 sequence (Q08881 1-620): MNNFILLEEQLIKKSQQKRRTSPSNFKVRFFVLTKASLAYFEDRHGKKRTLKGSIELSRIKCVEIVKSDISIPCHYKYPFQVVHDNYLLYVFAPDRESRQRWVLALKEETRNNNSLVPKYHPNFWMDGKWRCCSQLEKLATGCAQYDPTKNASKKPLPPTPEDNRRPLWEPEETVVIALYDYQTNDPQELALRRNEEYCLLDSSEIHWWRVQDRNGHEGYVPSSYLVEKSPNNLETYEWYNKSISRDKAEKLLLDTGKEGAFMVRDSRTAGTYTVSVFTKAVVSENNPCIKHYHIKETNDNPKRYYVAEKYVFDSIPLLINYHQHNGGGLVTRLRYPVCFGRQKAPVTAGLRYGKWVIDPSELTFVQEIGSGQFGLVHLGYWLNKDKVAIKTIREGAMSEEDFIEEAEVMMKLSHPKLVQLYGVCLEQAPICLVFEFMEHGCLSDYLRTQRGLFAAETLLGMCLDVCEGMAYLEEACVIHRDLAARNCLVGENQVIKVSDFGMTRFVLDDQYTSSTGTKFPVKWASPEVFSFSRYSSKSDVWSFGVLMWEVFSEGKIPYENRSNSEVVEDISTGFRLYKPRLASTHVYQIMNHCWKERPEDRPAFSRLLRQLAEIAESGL
Protocol: The assay format is similar to the Competitive Tracer-binding Assay and relies on the reversible binding of tracer 236 to recombinant tagged human ITK. […] The mixture was then filtered through a desalting column (Thermo Scientific, Zeba Spin Desalting Column, 40K MWCO) to remove unbound inhibitor. The assay was initiated immediately after the desalting step by diluting the eluate containing the inhibited kinase complex 50-fold into a solution of anti-tag antibody (2 nM final) and excess tracer 236 (40 nM final). Dissociation of inhibitor and binding of tracer was monitored immediately after assay initiation using an EnVision plate reader (excitation 340 nm, dual emission at 665 nm and 615 nm). Reagents including GST-tagged recombinant human ITK, Kinase tracer 236, Lanthascreen Eu-Anti-GST antibody and kinase buffer A were purchased from ThermoFisher Scientific/Invitrogen. Each data point represents the mean of technical triplicates. Equation 3 was fitted to the BMS-509744 data to obtain the rate constant using GraphPad Prism from which the half-life was calculated.

[2] = test system: other TEC kinases; conditions: literature; cited from earlier work

half-life of inhibitor-ITK complex ([1]; dilution into excess tracer 236) [min]	SMILES	reversibility of ITK inhibition on dilution ([1]; dilution into competitive probe)	inhibition of other TEC kinases [2]
2.6	COc1cc(C)c(Sc2cnc(NC(=O)c3ccc(CNC(C)C(C)(C)C)cc3)s2)cc1C(=O)N1CCN(C(C)=O)CC1 (stereo not drawn) [BMS-509744, reference compound]	reversible; also recorded: rapid dissociation	
	C=CC(=O)N1CCC[C@@H]1Cn1c(NC(=O)c2ccc(C(F)F)s2)nc2cc(CN[C@@H](C)C(C)(C)C)ccc21 [PRN694]		significant inhibition
